Measured values published in patent publication US12110278B2, “Selective JAK2 pseudokinase ligands and methods of use” (YALE UNIVERSITY, priority 2020, dated 2024).

biological target: WT JAK2 JH2 (Homo sapiens (Human), UniProt O60674); test: not given; conditions: read-out: Binding constant with WT JAK2 JH2; cited from earlier work
Sequence (O60674 545-809): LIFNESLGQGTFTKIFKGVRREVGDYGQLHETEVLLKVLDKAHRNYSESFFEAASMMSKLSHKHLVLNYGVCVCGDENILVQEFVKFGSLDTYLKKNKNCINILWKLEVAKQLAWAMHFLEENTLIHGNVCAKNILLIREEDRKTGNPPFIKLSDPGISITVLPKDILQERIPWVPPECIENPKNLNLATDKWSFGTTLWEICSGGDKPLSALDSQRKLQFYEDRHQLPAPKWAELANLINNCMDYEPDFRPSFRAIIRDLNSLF

SMILES	Kd [µM]
Nc1ncnc2c1ncn2[C@@H]1O[C@H](COP(=O)(O)OP(=O)(O)OP(=O)(O)O)[C@@H](O)[C@H]1O [ATP]	1.3

biological target: JAK2 JH2 V617F mutant (Homo sapiens (Human), UniProt O60674, V617F); test: not given; conditions: cited from earlier work
Sequence (O60674 545-809 V617F): as the sequence (O60674 545-809) above, with V73F counted along it

SMILES	Kd [µM]
Nc1ncnc2c1ncn2[C@@H]1O[C@H](COP(=O)(O)OP(=O)(O)OP(=O)(O)O)[C@@H](O)[C@H]1O [ATP]	1.3

tested on: not given; test: not given; conditions: cited from earlier work

SMILES	octanol/water log P
c1ccoc1 [furan]	1.34
c1ccsc1 [thiophene]	1.81
c1cocn1 [oxazole]	0.12
c1cscn1 [thiazole]	0.44

biological target: JAK2 JH2 (Homo sapiens (Human), UniProt O60674); test: Competitive fluorescence polarization (FP) assay, JAK2 JH2; conditions: read-out: Binding Affinity for JAK2 JH2 (Kd) from the FP Assay; wild-type JH2, FP, pH 8.0; mean ± SEM
Sequence (O60674 536-812 W659A/W777A/F794H): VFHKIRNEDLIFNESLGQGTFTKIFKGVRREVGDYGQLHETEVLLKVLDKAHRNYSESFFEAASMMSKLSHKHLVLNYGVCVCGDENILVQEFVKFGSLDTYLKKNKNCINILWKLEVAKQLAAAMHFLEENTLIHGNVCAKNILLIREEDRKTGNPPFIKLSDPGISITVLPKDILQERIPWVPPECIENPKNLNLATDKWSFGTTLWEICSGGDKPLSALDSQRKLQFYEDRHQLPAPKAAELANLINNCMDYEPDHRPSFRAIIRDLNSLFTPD

Kd [µM]	SMILES
12.3	Nc1nc(Nc2ccc(S(N)(=O)=O)cc2)nn1C(=O)Nc1cccnc1 [Compound 7, 5-amino-N-(pyridin-3-yl)-3((4-sulfamoylphenyl)amino)-1H-1,2,4-triazole-1-carboxamide]
4.7	Nc1nc(Nc2ccc(S(N)(=O)=O)cc2)nn1C(=O)Nc1ccccc1 [Compound 4]
16.7	Nc1nc(Nc2ccc(S(N)(=O)=O)cc2)nn1Cc1c(F)cccc1F [Compound 2, 4-((5-amino-1-(2,6-difluorobenzyl)-1H-1,2,4-triazol-3-yl)amino)benzenesulfonamide]
7 ± 0.1	Nc1nc(Nc2ccc(S(N)(=O)=O)cc2)nn1C(=O)Nc1ccc(-c2nnc(C(=O)O)o2)cc1 [Compound 14, 5-(4-(5-amino-3((4-sulfamoylphenyl)amino)-1H-1,2,4-triazole-1-carboxamido)phenyl)-1,3,4-oxadiazole-2-carboxylic acid]
47.8 ± 9.2	CN(C(=O)n1nc(Nc2ccc(S(N)(=O)=O)cc2)nc1N)c1ccccc1 [Compound 5, 5-amino-N-methyl-N-phenyl-3-((4-sulfamoylphenyl)amino)-1H-1,2,4-triazole-1-carboxamide]
0.439 ± 0.064	Nc1nc(Nc2ccc(S(N)(=O)=O)cc2)nn1C(=O)Nc1ccc(-c2ccc(C(=O)O)o2)cc1 [Compound 13, 5-(4-(5-amino-3((4-sulfamoylphenyl)amino)-1H-1,2,4-triazole-1-carboxamido)phenyl)furan-2-carboxylic acid]
30.5 ± 3.6	Nc1nc(Nc2ccc(S(N)(=O)=O)cc2)nn1C(=O)Nc1ccccn1 [Compound 6]
4	N#Cc1ccc(Nc2nc(N)n(C(=O)Nc3cccc(OCC(=O)O)c3)n2)cc1 [Compound 11, 2-(3-(5-amino-3((4-cyanophenyl)amino)-1H-1,2,4-triazole-1-carboxamido)phenoxy)acetic acid]
